Source: paper PMC10700596 (Nature Communications, 2023)
Read-outs that look alike come from different tables or passages of the source.

Experiments:
EP4R [1] = biological target: T1, EP4R (Homo sapiens, UniProt P35408); assay: biochemical; format: binding; conditions: […]
T1 construct: Tango fusion cassette (only 'tango' is printed); expressed in transfected cells; host or cells: HTLA cells (tTA-dependent luciferase reporter, β-arrestin2-TEV fusion)

EP4R [2] = biological target: T1, EP4R; assay: PRESTO-Tango β-arrestin2 recruitment assay; format: cell-based; conditions: for Ki: PRESTO-Tango Ki* (nM); for antagonist activity at EP4R: concentration-response
[3] = read-out: % displacement of 3HPGE2 at 10 µM, 10 µM compound vs 10 nM 3H-PGE2
[4] = PRESTO-Tango -logIC50, antagonist mode, EC80 of PGE2
[5] = PRESTO-Tango IC50 (nM), antagonist mode, EC80 of PGE2

T1 sequence (P35408 whole entry, the tested form may be a part): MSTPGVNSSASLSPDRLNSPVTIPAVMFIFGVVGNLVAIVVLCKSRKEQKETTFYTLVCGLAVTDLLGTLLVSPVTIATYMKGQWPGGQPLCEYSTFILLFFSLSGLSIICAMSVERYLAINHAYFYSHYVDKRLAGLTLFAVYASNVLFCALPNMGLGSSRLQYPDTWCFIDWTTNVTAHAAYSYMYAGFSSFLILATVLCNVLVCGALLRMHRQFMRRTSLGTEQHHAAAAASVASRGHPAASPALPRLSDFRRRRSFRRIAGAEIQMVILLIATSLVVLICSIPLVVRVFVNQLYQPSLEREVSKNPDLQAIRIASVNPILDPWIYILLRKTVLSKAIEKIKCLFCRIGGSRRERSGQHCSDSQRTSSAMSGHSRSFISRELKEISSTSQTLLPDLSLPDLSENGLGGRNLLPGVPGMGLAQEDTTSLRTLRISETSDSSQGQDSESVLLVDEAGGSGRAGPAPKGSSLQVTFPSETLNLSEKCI

SMILES	inhibition at 10 µM (EP4R [1]; [3]) [%]	other results
CC(CN(Cc1ccccc1)C(=O)COc1ccc(Cl)c2cccnc12)C(=O)O (stereo not shown) [Compound 35, CC(CN(CC=1C=CC=CC1)C(=O)COC=2C=CC(Cl)=C3C=CC=NC23)C(=O)O]	-5.8	
CN(C(=O)CSc1nnc(S)s1)c1ccc2ccccc2c1 [Compound 36, CN(C(=O)CSC1=NN=C(S)S1)C=2C=CC=3C=CC=CC3C2]	-5.8	
Cc1ccc(CN(Cc2ccco2)C(=O)CSc2nnc(S)s2)s1 [Compound 37, CC1=CC=C(CN(CC2=CC=CO2)C(=O)CSC3=NN=C(S)S3)S1]	-5.2	
CC1(C(=O)O)CC(NS(=O)(=O)c2cc3cc(Cl)ccc3s2)CCO1 (stereo not shown) [Compound 38, CC1(CC(CCO1)NS(=O)(=O)C2=CC=3C=C(Cl)C=CC3S2)C(=O)O]	-5.2	
O=C(O)CSc1nc2cc(Cl)ccc2n1Cc1ccccc1 [Compound 39, OC(=O)CSC1=NC=2C=C(Cl)C=CC2N1CC=3C=CC=CC3]	-4.9	
CN(C(=O)C1CCCC1Cc1ccccc1)[C@H]1C[C@@H](C(=O)O)C1 (stereo partly shown) [Compound 40, CN([C@H]1C[C@H](C1)C(=O)O)C(=O)C2CCCC2CC=3C=CC=CC3]	-4	
O=C(NCc1ccc(C(F)F)cc1)NC[C@H]1CC[C@H](C(=O)O)CC1 [Compound 41, OC(=O)[C@H]1CC[C@H](CNC(=O)NCC=2C=CC(=CC2)C(F)F)CC1]	-3.4	
O=C(O)Cc1ccc(C=C2C(=O)N3CCCc4cccc2c43)cc1 [Compound 42, OC(=O)CC=1C=CC(C=C2C(=O)N3CCCC=4C=CC=C2C34)=CC1]	-3.2	
Cc1nn(CC(F)(F)F)c(C)c1CC(=O)N(C1CC1)C(C)C(=O)O (stereo not shown) [Compound 43, CC(N(C1CC1)C(=O)CC=2C(C)=NN(CC(F)(F)F)C2C)C(=O)O]	-2.6	
CN(C(=O)c1cc(N2CCCC2=O)cc(C(F)(F)F)c1)c1nnn[nH]1 [Compound 44, CN(C(=O)C=1C=C(C=C(C1)C(F)(F)F)N2CCCC2=O)C3=NN=NN3]	-2.6	
Cc1cccc(C2(C(=O)NC3CCSC4(C3)CC(C(=O)O)C4)CC2)c1 (stereo not shown) [Compound 45, CC=1C=CC=C(C1)C2(CC2)C(=O)NC3CCSC4(CC(C4)C(=O)O)C3]	-1.8	
CN(C(=O)c1nc(C2CC2)n(-c2ccccc2Cl)n1)c1nnn[nH]1 [Compound 46, CN(C(=O)C=1N=C(C2CC2)N(N1)C=3C=CC=CC3Cl)C4=NN=NN4]	-1.5	
Cc1cccc2sc(N(C)CC(C)c3nnn[nH]3)nc12 (stereo not shown) [Compound 47, CC(CN(C)C1=NC=2C(C)=CC=CC2S1)C3=NN=NN3]	-1.1	
Cn1nc(-c2ccccc2)cc1CNC(=O)NC1CCC(C(=O)O)CC1 (stereo not shown) [Compound 48, CN1N=C(C=C1CNC(=O)NC2CCC(CC2)C(=O)O)C=3C=CC=CC3]	-0.1	
CC(c1cn(-c2ccccc2)nn1)N1CCN(C(=O)C(=O)O)CC1 (stereo not shown) [Compound 49, CC(N1CCN(CC1)C(=O)C(=O)O)C2=CN(N=N2)C=3C=CC=CC3]	0.8	
CC(c1nc(-c2cccc(C(F)(F)F)c2)no1)S(=O)(=O)c1nnc[nH]1 (stereo not shown) [Compound 50, CC(C1=NC(=NO1)C=2C=CC=C(C2)C(F)(F)F)S(=O)(=O)C3=NN=CN3]	0.9	
O=C(O)Cc1ccc(NC(=O)c2cncc(-c3ccccc3)c2)cc1 [Compound 51, OC(=O)CC=1C=CC(NC(=O)C=2C=NC=C(C2)C=3C=CC=CC3)=CC1]	1	
COc1ccccc1CN(Cc1cccs1)C(=O)Cc1cccc(C(=O)O)c1 [Compound 52, COC=1C=CC=CC1CN(CC2=CC=CS2)C(=O)CC=3C=CC=C(C3)C(=O)O]	1.2	

SMILES	inhibition at 10 µM (EP4R [1]; [3]) [%]	other results
O=C(O)c1cc(NS(=O)(=O)c2ccc(Br)cc2F)ccc1O [Compound 53, OC(=O)C=1C=C(NS(=O)(=O)C=2C=CC(Br)=CC2F)C=CC1O]	2.8	
Cc1cc(C)cc(C2(C(=O)NC(C)c3ncc(C(=O)O)s3)CC2)c1 (stereo not shown) [Compound 54, CC(NC(=O)C1(CC1)C=2C=C(C)C=C(C)C2)C3=NC=C(S3)C(=O)O]	3.6	
O=C(O)CCC(Cc1ccccc1)NS(=O)(=O)C=Cc1ccccc1Cl (stereo not shown) [Compound 55, OC(=O)CCC(CC=1C=CC=CC1)NS(=O)(=O)C=CC=2C=CC=CC2Cl]	7.6	
O=C(O)c1ccc(-c2ccc(C=C3CSc4ccc(F)cc4C3=O)o2)cc1O [Compound 56, OC(=O)C=1C=CC(=CC1O)C2=CC=C(C=C3CSC=4C=CC(F)=CC4C3=O)O2]	7.9	
O=C(O)C1CC2(CC(NS(=O)(=O)C=Cc3ccc(F)cc3)CCS2)C1 (stereo not shown) [Compound 57, OC(=O)C1CC2(C1)CC(CCS2)NS(=O)(=O)C=CC=3C=CC(F)=CC3]	9	
CC(Sc1ccccc1Cl)C(=O)N1CCCC(Cc2nnn[nH]2)C1 (stereo not shown) [Compound 58, CC(SC=1C=CC=CC1Cl)C(=O)N2CCCC(CC3=NN=NN3)C2]	10.8	
CCSc1cc(C(=O)O)ccc1NC(=O)c1cnn(-c2ccccc2F)c1 [Compound 59, CCSC=1C=C(C=CC1NC(=O)C=2C=NN(C2)C=3C=CC=CC3F)C(=O)O]	11.6	
CC(C)(Oc1ccc(F)cc1)C(=O)N1CC(CC(=O)O)c2ccccc21 (stereo not shown) [Compound 60, CC(C)(OC=1C=CC(F)=CC1)C(=O)N2CC(CC(=O)O)C=3C=CC=CC23]	13.8	
O=C(O)CCC1CCCN(C(=O)c2nn(-c3ccccc3)c3c2CCC3)C1 (stereo not shown) [Compound 61, OC(=O)CCC1CCCN(C1)C(=O)C2=NN(C=3CCCC23)C=4C=CC=CC4]	15.1	
CN1C(=O)C(=Cc2cccc(OCC(=O)O)c2)c2cc(Br)cnc21 [Compound 62, CN1C(=O)C(=CC=2C=CC=C(OCC(=O)O)C2)C=3C=C(Br)C=NC13]	17.2	IC50 (EP4R [2]; [4]): 3470 nM; IC50 (EP4R [2]; [5]): 3510 nM; Ki (EP4R [2]): 702 nM; antagonist activity at EP4R (EP4R [2]): dose-dependent antagonist activity
CCc1ccc(C(=O)Nc2cccc(-c3nnn[nH]3)c2)c(C)n1 [Compound 63, CCC=1C=CC(C(=O)NC=2C=CC=C(C2)C3=NN=NN3)=C(C)N1]	19.3	
Cc1ccc(-n2nc(C(=O)Nc3ccc(CC(=O)O)cc3)c3c2CCC3)cc1 [Compound 64, CC=1C=CC(=CC1)N2N=C(C(=O)NC=3C=CC(CC(=O)O)=CC3)C=4CCCC42]	20	
O=C(O)CC1CN(C(=O)[C@@H]2C[C@]23CCOc2ccccc23)c2ccccc21 (stereo partly shown) [Compound 65, OC(=O)CC1CN(C(=O)[C@@H]2C[C@@]32CCOC=4C=CC=CC43)C=5C=CC=CC15]	24	inhibition at 10 µM (EP4R [1]; read-out: 3H-PGE2 Displacement by 10 µM of docking hits (Displacment), 10 µM compound, individual replicate values (Figure 1B source data)): 23.4%; IC50 (EP4R [2]; [5]): 5160 nM; Ki (EP4R [2]; calculated using the Cheng Prusoff equation): 1030 nM; antagonist activity at EP4R (EP4R [2]): dose-dependent antagonist activity
Cn1nnnc1NCC(C(=O)OCc1ccccc1)c1ccccc1 (stereo not shown) [Compound 67, CN1N=NN=C1NCC(C(=O)OCC=2C=CC=CC2)C=3C=CC=CC3]	31.5	
O=C(O)Cc1ccc(NC(=O)c2cc(C3CC3)nc3ccc(F)cc23)cc1 [Compound 68, OC(=O)CC=1C=CC(NC(=O)C=2C=C(N=C3C=CC(F)=CC23)C4CC4)=CC1]	31.8	IC50 (EP4R [2]; [4]): 11000 nM; IC50 (EP4R [2]; [5]): > 10000 nM; antagonist activity at EP4R (EP4R [2]): dose-dependent antagonist activity
Cc1c(C(=O)N(C)c2nnn[nH]2)cnn1-c1ccc(Cl)cc1 [Compound 69, CN(C(=O)C=1C=NN(C1C)C=2C=CC(Cl)=CC2)C3=NN=NN3]	37.7	
N#Cc1ccc(OCc2cccc(C(=O)Nc3cccc(-c4nnn[nH]4)c3)c2)cc1 [Compound 70, O=C(NC=1C=CC=C(C1)C2=NN=NN2)C=3C=CC=C(COC=4C=CC(C#N)=CC4)C3]	56.2	IC50 (EP4R [2]; PRESTO-Tango -logIC50): 14500 nM; IC50 (EP4R [2]; PRESTO-Tango IC50 (nM)): > 10000 nM; antagonist activity at EP4R (EP4R [2]): dose-dependent antagonist activity
